Experimental data as given in patent US10064853B2, “Compounds for use in methods for treating diseases or conditions mediated by protein disulfide isomerase” (Beth Israel Deaconess Medical Center, Inc., priority 2013, dated 2018).
Read-outs that look alike come from different tables or passages of the source.

What was measured:
[1] = Stability of PDI inhibitors in mouse plasma; assay type: in vitro ADME; conditions: 1 μM, room temperature
Method: (§1) The stability of PDI inhibitors was measured in the presence of PBS pH 7.4 with 1% DMSO. PDI inhibitors were added to plasma (in triplicate at 1 μM) on six separate plates and allowed to equilibrate at room temperature for 48 hours. At each time point (0, 2, 4, 8, 24, and 48 hours), one plate was removed and an aliquot was taken out from each well and analyzed by UPLC-MS.

[2] = target: ERp5 (Homo sapiens (Human), UniProt Q15084); assay: Insulin turbidimetric assay counter screen, ERp5; assay type: biochemical
ERp5, sequence (Q15084 20-440, species assumed): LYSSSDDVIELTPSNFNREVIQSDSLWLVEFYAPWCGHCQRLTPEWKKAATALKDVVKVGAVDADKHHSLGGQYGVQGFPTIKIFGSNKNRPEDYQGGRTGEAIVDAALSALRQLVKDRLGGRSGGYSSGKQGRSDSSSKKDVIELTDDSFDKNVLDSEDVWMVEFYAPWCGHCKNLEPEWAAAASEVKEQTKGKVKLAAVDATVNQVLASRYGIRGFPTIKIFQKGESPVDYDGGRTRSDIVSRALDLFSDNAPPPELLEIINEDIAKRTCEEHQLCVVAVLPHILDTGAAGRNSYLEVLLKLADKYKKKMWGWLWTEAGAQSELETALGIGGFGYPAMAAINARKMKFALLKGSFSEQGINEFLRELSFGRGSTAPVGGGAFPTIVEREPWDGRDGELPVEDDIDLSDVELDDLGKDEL
Method: (§2) PDI inhibitors were evaluated in an insulin turbidimetric assay to assess their ability to block the reductase activity of PDI. The assay measured the aggregation of insulin chains by monitoring absorbance at 650 nm as previously described in Jasuja, R. et al. Protein disulfide isomerase inhibitors constitute a new class of antithrombotic agents. J Clin Invest 122, 2104-2113 (2012) (hereinafter “Jasija”). Cleavage of disulfide bonds within insulin by PDI results in aggregation of insulin. When PDI is inhibited, there is a decrease in aggregation of insulin, and therefore a decrease in absorbance signal at 650 nm. Recombinant human PDI expressed and purified from E. coli., mixed with bovine insulin (Sigma), and added to assay plates. The reaction mixture for insulin reduction assays contained 100 mM potassium phosphate, pH 7.4; 0.75 mM DTT, 2 mM EDTA, 0.1 mM bovine insulin, and 0.8 μM purified human PDI in a total volume of 135 μl in a 96 well plate. The progress of the reaction was monitored for 30 min at 23° C. Indicated inhibitors or control buffer was added prior to the addition of enzyme at the concentrations indicated. PDI activity in the presence of compound was determined by the formula, PDI activity (%)={OD(compound+PDI+DTT)−OD(DTT)}/{OD(PDI+DTT)−OD(DTT)}×100 % enzyme inhibition={1−(ODmax(compound+enzyme)/ODmax(buffer control+enzyme)}
(§3) The insulin turbidimetric assay was used with alternative thiol isomerases to evaluate the specificity of inhibitors, as shown in Tables B and C. Other oxidoreductases used to evaluate the specificity of inhibitors include ERp5, thioredoxin (TR), and thioredoxin reductase (TRR).

[3] = Stability of PDI inhibitors in human plasma; assay type: in vitro ADME; conditions: 1 μM, room temperature
Method: as §1

[4] = target: Thioredoxin reductase; assay: Insulin turbidimetric assay counter screen, thioredoxin reductase; assay type: biochemical
Method: as §2, §3

[5] = target: human PDI (Homo sapiens (Human), UniProt P07237); assay: Insulin turbidimetric assay of PDI reductase activity; assay type: biochemical
human PDI, sequence (P07237 18-508): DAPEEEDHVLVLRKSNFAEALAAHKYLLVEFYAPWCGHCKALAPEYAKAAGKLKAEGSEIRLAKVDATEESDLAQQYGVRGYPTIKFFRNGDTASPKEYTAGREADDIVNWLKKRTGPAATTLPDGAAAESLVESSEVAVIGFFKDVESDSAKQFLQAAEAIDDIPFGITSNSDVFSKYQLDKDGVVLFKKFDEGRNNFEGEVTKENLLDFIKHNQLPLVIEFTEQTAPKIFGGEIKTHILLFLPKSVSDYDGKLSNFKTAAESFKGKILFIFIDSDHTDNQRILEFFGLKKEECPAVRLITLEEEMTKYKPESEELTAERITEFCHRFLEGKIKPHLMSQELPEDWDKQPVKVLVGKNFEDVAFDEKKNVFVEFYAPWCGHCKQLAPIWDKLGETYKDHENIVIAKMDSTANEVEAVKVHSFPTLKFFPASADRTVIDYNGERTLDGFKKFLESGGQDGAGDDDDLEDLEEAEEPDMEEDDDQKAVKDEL
Method: as §2
IC50 values were calculated using non-linear regression analysis.

[6] = target: ERp57 (Homo sapiens (Human), UniProt P30101); assay: Insulin turbidimetric assay counter screen, ERp57; assay type: biochemical; conditions: Table B; read-out: Counter Screen: Selectivity against other thiol isomerases IC50 ERp57
ERp57, sequence (P30101 25-505, species assumed): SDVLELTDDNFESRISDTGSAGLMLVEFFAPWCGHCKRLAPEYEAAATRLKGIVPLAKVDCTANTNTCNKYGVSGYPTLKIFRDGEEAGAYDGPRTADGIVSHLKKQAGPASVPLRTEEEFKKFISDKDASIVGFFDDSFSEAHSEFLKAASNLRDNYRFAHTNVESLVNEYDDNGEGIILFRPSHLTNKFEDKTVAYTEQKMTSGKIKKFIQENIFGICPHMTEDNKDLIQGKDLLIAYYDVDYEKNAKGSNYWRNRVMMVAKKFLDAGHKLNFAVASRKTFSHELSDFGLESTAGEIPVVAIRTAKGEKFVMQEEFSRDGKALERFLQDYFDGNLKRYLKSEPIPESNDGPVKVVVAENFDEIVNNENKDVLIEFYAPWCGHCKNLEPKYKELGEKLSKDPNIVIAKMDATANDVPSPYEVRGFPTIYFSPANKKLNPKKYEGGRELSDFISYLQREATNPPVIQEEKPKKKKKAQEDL
Method: as §2, §3

[7] = test system: washed platelets; assay: Platelet aggregation (SFLLRN-induced, washed platelets); assay type: cell-based; conditions: inhibition of platelet aggregation; compounds at 30 μM, 30 minutes at 37° C., SFLLRN-initiated
Method: Platelet Rich Plasma (PRP) was prepared from whole blood obtained from individual donors and drawn into Acid Citrate Dextrose (ACD) at 15% of total volume. PGE-1 was added to a final concentration of 0.15 µM to maintain the resting state. PRP was spun at 1000 g×10 minutes and the supernatant was discarded. The platelet pellet was resuspended in Modified HEPES-Tyrodes buffer pH 7.3. The 1× washed platelets were incubated for 20 minutes at 37° C. until they were in a quiescent state. The above washing procedure was then repeated. The 2× washed platelets were allowed to rest for 20 minutes at 37° C. Platelets were then counted and the concentration of platelets in suspension was adjusted to 200,000 platelets/µL. The 2× washed platelets were treated with compounds at 30 µM, and were incubated for 30 minutes at 37° C. Following incubation, platelets were added to a cuvette and stirred at 37° C. in a Chrono-Log Platelet Aggregometer. In order to initiate aggregation, a concentration of SFLLRN, the thrombin receptor activating peptide, sufficient to elicit 60-70% light transmittance was added to the cuvette. Therefore, a range of 2-3 µM SFLLRN was used in order to accommodate small differences in sensitivity to SFLLRN between individual donors. Prior to reading, the aggregometer was scaled so that unstimulated, washed platelets are set to 0% light transmittance, and buffer alone with no platelets is set to 100% light transmittance. The light transmittance of each sample was recorded as a measure of aggregation. Data were recorded as a single point representing maximum aggregation in the presence of compound and were compared to samples exposed to vehicle (DMSO) alone. See Jasuja

[8] = target: Thioredoxin (Homo sapiens (Human), UniProt P10599); assay: Insulin turbidimetric assay counter screen, thioredoxin; assay type: biochemical
Thioredoxin, sequence (P10599 whole entry, species assumed): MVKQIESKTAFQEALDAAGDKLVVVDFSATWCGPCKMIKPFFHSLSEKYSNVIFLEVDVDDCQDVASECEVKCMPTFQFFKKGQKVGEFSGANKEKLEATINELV
Method: as §2, §3

[9] = Table B, read-out: Counter Screen: Selectivity against other thiol isomerases IC50 ERp5
[10] = Table C, read-out: Specif. (ERp5, TR, TRR): ERp5
[11] = Table B, read-out: Counter Screen: Selectivity against other thiol isomerases IC50 Thioredoxin reductase
[12] = Table C, read-out: Specif. (ERp5, TR, TRR): TRR
[13] = Table A, average of two independent experiments, read-out: PDI_Inhibition_ IC50
[14] = Table B, read-out: PDI_ Inhibition_ IC50
[15] = insulin reductase assay, recombinant human PDI, read-out: PDI_Inhibition_ IC50
[16] = Table B, read-out: Counter Screen: Selectivity against other thiol isomerases IC50 Thioredoxin
[17] = Table C, read-out: Specif. (ERp5, TR, TRR): TR

Row | Structure (SMILES) | Plasma stability mouse [1] [%] | IC50 [2, 9] [µM] | IC50 [2, 10] [µM] | Plasma stability human [3] [%] | IC50 [4, 11] [µM] | IC50 [4, 12] [µM] | IC50 [5, 13] [µM] | IC50 [5, 14] [µM] | IC50 ([5]; Table C, PDI, read-out: IC50) [µM] | IC50 [5, 15] [µM] | IC50 [6] [µM] | Platelet Aggregation [7] | IC50 [8, 16] [µM] | IC50 [8, 17] [µM]
1 | CCOC(=O)C1(CCOc2ccccc2)CCN(Cc2ccc(O)c(Cl)c2)CC1 [Compound 1, Ethyl 1-(3-chloro-4-hydroxybenzyl)-4-(2-phenoxyethyl)piperidine-4-carboxylate] | 5.3 | > 30 | > 30 | 100 | > 30 | > 30 | 0.25 | 0.25 | 0.3 to 0.6 | 0.25 | > 30 | 25-50% | > 30 | > 30
2 | CCOC(=O)C1(CCOc2ccccc2)CCN(Cc2ccc(OC)c(Cl)c2)CC1 [Compound 4] | – | – | – | – | > 30 | – | > 30 | > 30 | – | > 30 | > 30 | – | > 30 | –
3 | C=CCOc1ccc(CN2CCC(CCOc3ccccc3)(C(=O)OCC)CC2)cc1Cl [Compound 5] | – | – | – | – | – | – | > 30 | – | – | > 30 | – | – | – | –
4 | CCOC(=O)C1(CCOc2ccccc2)CCN(Cc2ccc(OC)cc2)CC1 [Compound 6] | – | – | – | – | – | – | > 30 | – | – | > 30 | – | – | – | –
5 | CCOC(=O)C1(CCOc2ccccc2)CCN(Cc2ccc(O)cc2)CC1 [Compound 7] | – | – | – | – | > 30 | – | – | 15 | – | – | > 30 | – | > 30 | –
6 | CCOC(=O)C1(CCOc2ccccc2)CCN(Cc2ccc3[nH]c(=O)oc3c2)CC1 [Compound 8] | – | – | – | – | – | – | > 30 | – | – | > 30 | – | – | – | –
7 | CCOC(=O)C1(CCOc2ccccc2)CCN(C(=O)c2ccc(O)c(Cl)c2)CC1 [Compound 9] | 100 | – | > 30 | 100 | > 30 | > 30 | 2.25 | 2.25 | 2.25 | 2.25 | > 30 | 100% | > 30 | > 30
8 | CC(C)OC(=O)C1(CCOc2ccccc2)CCN(Cc2ccc(O)c(Cl)c2)CC1 [Compound 13] | 75.3 | > 30 | > 30 | 97.9 | > 30 | > 30 | 0.85 | 0.85 | 0.85 | 0.85 | > 30 | 97% | > 30 | > 30
9 | CC(C)(C)OC(=O)C1(CCOc2ccccc2)CCN(Cc2ccc(O)c(Cl)c2)CC1 [Compound 14] | 95.6 | > 30 | > 30 | 98.7 | > 30 | > 30 | 0.65 | 0.65 | 0.65 | 0.65 | > 30 | 100% | > 30 | > 30
10 | CCNC(=O)C1(CCOc2ccccc2)CCN(Cc2ccc(O)c(Cl)c2)CC1 [Compound 15] | – | – | – | – | – | – | > 30 | – | – | > 30 | – | – | – | –
11 | CCN(C)C(=O)C1(CCOc2ccccc2)CCN(Cc2ccc(O)c(Cl)c2)CC1 [Compound 16] | – | – | – | – | > 30 | – | 3 | 3 | – | 3 | > 30 | – | > 30 | –
12 | O=C(NC1CCCC1)C1(CCOc2ccccc2)CCN(Cc2ccc(O)c(Cl)c2)CC1 [Compound 17] | – | – | – | – | > 30 | – | 4 | 4 | – | 4 | > 30 | – | > 30 | –
13 | O=C(N1CCCC1)C1(CCOc2ccccc2)CCN(Cc2ccc(O)c(Cl)c2)CC1 [Compound 18] | – | – | – | – | – | – | > 30 | – | – | > 30 | – | – | – | –
14 | O=C(Nc1ccccc1)C1(CCOc2ccccc2)CCN(Cc2ccc(O)c(Cl)c2)CC1 [Compound 19] | – | – | – | – | > 30 | – | 22.5 | 22.5 | – | 22.5 | > 30 | – | > 30 | –
